The species named for one test is Homo sapiens. Put plainly: Binding affinity to human ABL at 1 uM by Kinomescan method.
Test [1] has as its target Bone morphogenetic protein receptor type-1B (Homo sapiens, UniProt O00238). The test is described as follows: Inhibition of human ALK6 at 1 uM by Kinomescan method.
The target of test [2] is RAF proto-oncogene serine/threonine-protein kinase (Homo sapiens) (UniProt P04049). The test is described as follows: Inhibition of human wild type partial length C-Raf (I330 to T640 residues) expressed in bacterial expression system at 1 uM by Kinomescan method relative to control.
Chain of RAF proto-oncogene serine/threonine-protein kinase (Homo sapiens) (P04049 whole entry, the tested form may be a part): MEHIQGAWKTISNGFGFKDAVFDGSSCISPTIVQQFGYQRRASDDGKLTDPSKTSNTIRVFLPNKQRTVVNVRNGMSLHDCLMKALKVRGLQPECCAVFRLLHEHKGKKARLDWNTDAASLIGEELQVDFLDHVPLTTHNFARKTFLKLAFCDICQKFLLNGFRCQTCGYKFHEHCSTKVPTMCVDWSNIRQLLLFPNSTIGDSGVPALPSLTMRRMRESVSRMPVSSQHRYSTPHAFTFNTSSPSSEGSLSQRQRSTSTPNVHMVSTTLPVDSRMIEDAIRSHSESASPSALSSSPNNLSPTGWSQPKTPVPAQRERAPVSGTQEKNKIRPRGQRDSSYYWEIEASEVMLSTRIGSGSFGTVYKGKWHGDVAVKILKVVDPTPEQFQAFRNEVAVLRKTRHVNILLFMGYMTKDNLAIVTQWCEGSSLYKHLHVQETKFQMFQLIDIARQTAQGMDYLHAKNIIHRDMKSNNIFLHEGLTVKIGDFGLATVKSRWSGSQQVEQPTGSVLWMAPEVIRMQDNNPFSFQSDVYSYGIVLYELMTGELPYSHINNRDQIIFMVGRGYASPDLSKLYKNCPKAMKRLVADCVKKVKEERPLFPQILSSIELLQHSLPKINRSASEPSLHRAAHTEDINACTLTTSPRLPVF
Test [3] deals with T1, Ephrin type-A receptor 8 (Homo sapiens) (UniProt P29322).
T1 sequence (whole entry): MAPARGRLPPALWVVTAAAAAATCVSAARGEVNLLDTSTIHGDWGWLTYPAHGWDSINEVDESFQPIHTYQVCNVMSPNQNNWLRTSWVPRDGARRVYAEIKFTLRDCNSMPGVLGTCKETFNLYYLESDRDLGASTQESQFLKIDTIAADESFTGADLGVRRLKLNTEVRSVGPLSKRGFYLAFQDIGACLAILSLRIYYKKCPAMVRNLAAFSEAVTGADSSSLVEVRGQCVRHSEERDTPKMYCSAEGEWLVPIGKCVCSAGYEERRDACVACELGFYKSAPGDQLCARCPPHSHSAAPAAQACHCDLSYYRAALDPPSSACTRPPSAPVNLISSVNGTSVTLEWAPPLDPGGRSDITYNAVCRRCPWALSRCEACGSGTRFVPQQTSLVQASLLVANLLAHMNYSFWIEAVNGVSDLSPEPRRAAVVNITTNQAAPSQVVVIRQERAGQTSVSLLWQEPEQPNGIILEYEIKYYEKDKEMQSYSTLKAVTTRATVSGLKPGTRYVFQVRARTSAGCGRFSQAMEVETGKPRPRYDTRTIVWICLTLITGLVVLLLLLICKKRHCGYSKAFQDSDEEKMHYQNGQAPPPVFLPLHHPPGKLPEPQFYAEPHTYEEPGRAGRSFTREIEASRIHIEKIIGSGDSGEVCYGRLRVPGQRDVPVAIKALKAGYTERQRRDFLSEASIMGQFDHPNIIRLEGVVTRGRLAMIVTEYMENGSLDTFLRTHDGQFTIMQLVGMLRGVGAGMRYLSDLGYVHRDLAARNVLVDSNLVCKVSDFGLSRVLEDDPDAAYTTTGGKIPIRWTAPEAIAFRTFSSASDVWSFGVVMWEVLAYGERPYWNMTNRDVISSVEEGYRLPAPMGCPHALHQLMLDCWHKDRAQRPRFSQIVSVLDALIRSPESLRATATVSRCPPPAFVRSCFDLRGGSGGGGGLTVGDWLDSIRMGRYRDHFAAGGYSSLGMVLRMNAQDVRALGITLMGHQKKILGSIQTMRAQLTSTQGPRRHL
Put plainly: Inhibition of human wild type partial length EphA8 (Q608 to C920 residues) expressed in bacterial expression system at 1 uM by Kinomescan method.

SMILES strings stand for the structures. The source made the active and inactive calls. The calls are words filed in the database; no cut-off is given here.

Chain of Bone morphogenetic protein receptor type-1B (O00238 whole entry, the tested form may be a part): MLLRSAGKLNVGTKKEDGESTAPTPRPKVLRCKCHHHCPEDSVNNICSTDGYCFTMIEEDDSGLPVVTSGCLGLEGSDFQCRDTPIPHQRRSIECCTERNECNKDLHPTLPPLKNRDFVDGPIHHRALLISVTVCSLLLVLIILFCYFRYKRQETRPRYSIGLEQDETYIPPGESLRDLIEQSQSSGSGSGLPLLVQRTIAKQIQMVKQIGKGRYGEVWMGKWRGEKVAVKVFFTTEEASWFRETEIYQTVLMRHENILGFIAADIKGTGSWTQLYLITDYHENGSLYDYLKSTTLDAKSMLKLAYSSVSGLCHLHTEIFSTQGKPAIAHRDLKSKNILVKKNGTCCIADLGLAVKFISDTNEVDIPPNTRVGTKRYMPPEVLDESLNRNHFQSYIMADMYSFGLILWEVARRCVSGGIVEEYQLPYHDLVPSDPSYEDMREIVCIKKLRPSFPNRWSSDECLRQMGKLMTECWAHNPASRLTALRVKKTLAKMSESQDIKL

With `COc1cc(Nc2ccnc3cc(C#N)ccc23)cc(OC)c1OC`, the outcome in the test filed under Homo sapiens was Active. Besides, the inhibition result in test [1] and in test [3] was “Active” throughout. In addition, the inhibition in test [2] was 70%.
As for `COc1cc(Nc2ccnc3cc(Br)ccc23)cc(OC)c1OC`, the result in the test listed under Homo sapiens was Active. For the same compound, the inhibition entry in test [1] and in test [3] was “Active” each time. The same compound gave an inhibition in test [2] of 70%.
On to `COc1cc(Nc2ccnc3cc(Cl)ccc23)cc(OC)c1OC`, for which the outcome in the test listed under Homo sapiens was Active. Also, the inhibition result in test [1] and in test [3] was “Active” throughout. In addition, the inhibition in test [2] was 70%.
In the case of `COc1cc(Nc2ccnc3cc(C(F)(F)F)ccc23)cc(OC)c1OC`, the result in the test filed under Homo sapiens was Active. For the same compound, the inhibition entry in test [1] and in test [3] was “Active” in each case. The compound further had an inhibition in test [2] of 70%.
With `COc1cc(Nc2ccnc3cc(I)ccc23)cc(OC)c1OC`, the result in the test filed under Homo sapiens was Active. In addition, the inhibition entry in test [1] and in test [3] was “Active” each time. In test [2], this compound had an inhibition of 70%.

(Values after ChEMBL document CHEMBL4665659, “Utilizing comprehensive and mini-kinome panels to optimize the selectivity of quinoline inhibitors for cyclin G associated kinase (GAK)” (Bioorg Med Chem Lett, 2019).)
